Measured values published in patent publication US7781419B2, “Use of bisphosphonates for otosclerosis” (priority 2003, dated 2010).
Where two headings read alike, the source gives them in different places.

Assays:
[1] = test system: otosclerosis patients with dizziness; assay: Example 2: stepped-up risedronate follow-up, dizziness patients; assay type: in vivo, human; settings: 30 mg twice weekly, after 2 to 32 months, 155 patients
Text: (§1) The second investigation is cumulative to the first investigation, i.e., some patients reported in Example 1 are included in Example 2.
Dizziness after a Period of 2 to 32 Months

[2] = test system: otosclerosis patients with Meniere's syndrome; assay: Example 1: stepped-up risedronate, Meniere's syndrome patients; assay type: in vivo, human; settings: 30 mg twice weekly, after 2 to 25 months, 36 patients
Procedure: (§2) In the first study, the following populations having the symptom stated were treated with a dosing schedule of 30 mg risedronate twice weekly (double the recommended dose for treating osteoporosis).

[3] = test system: otosclerosis patients with dizziness; assay: Example 1: stepped-up risedronate, dizziness patients; assay type: in vivo, human; settings: 30 mg twice weekly, after 3 to 25 months, 76 patients
Procedure: (§3) Patients were administered the bisphosphonate to see if dizziness could disappear or if associated symptoms of hearing loss or ear noise could be improved.
as §2

[4] = test system: otosclerosis patients with hearing loss; assay: Example 1: stepped-up risedronate, hearing loss patients; assay type: in vivo, human; settings: 30 mg twice weekly, after 3 to 24 months, 46 patients
Procedure: as §2
Hearing Loss after a Period of 3 to 24 Months

[5] = test system: otosclerosis patients with hearing loss; assay: Example 2: stepped-up risedronate follow-up, hearing loss patients; assay type: in vivo, human; settings: 30 mg twice weekly, after 3 to 31 months, 125 patients
Text: as §1
Hearing Loss after a Period of 3 to 31 Months

[6] = test system: otosclerosis patients with Meniere's syndrome; assay: Example 2: stepped-up risedronate follow-up, Meniere's syndrome patients; assay type: in vivo, human; settings: 30 mg twice weekly, after 2 to 33 months, 42 patients
Text: as §1
Meniere's Syndrome after a Period of 2 to 33 Months

[7] = test system: otosclerosis patients with tinnitus; assay: Example 2: stepped-up risedronate follow-up, tinnitus patients; assay type: in vivo, human; settings: 30 mg twice weekly, after 2 to 31 months, 84 patients
Text: as §1
Tinnitus or Ear Noise after 2 to 31 Months

[8] = test system: otosclerosis patients with tinnitus; assay: Example 1: stepped-up risedronate, tinnitus patients; assay type: in vivo, human; settings: 30 mg twice weekly, after 3 to 19 months, 29 patients
Procedure: This symptom can be a mild distraction, to an annoyance, to difficulty concentrating, to a total distraction. […] There are no current recognized treatments for tinnitus directed at a cause.
as §2
Tinnitus or Ear Noise after a Period of 3 to 19 Months

[9] = test system: otosclerosis patients with hearing loss; settings: 4 mg per injection, after 2 to 10 months, 5 patients (two also on etidronate)
Procedure: To illustrate the advantages of the invention, patients with the following symptoms were treated.
In a fourth study, the following populations having the symptom stated were administered a zolendronic acid injection in 4 mg per injection no more frequently than every three months. The frequency of administration was dependent upon the patient response and the impending indication. Some patients were also administered etidronate. All patients received calcium plus vitamin D and/or calcium plus fluoride throughout the treatment.
Hearing Loss after 2 to 10 Months

[10] = test system: otosclerosis patients with dizziness; assay: Example 4: intravenous zolendronic acid, dizziness patients; assay type: in vivo, human; settings: 4 mg per injection, after 4 to 12 months, 3 patients
Procedure: as §3
In a fourth study, the following populations having the symptom stated were administered a zolendronic acid injection in 4 mg per injection no more frequently than every three months. […] Some patients were also administered etidronate.
Dizziness after 4 to 12 Months

O=P(O)(O)C(O)(Cc1cccnc1)P(=O)(O)O [risedronate, pyridiniyl bisphosphonate]
patients whose dizziness disappeared [1]: 45% | patients with dizziness worse [1]: 2% | patients with no change in dizziness [1]: 5% | patients with reduced dizziness, no problem in daily living [1]: 39% | relief of dizziness [1]: 84% | clogging or fullness in the ear worse [2]: no patient | dizziness the same or worse [2]: no instances | ear noise worse [2]: no patient | patients in whom clogging or fullness in the ear was not present [2]: 42% | patients whose clogging or fullness in the ear disappeared [2]: 17% | patients whose dizziness disappeared [2]: 50% | patients whose ear noise cleared up [2]: 8% | patients with clogging or fullness in the ear better [2]: 22% | patients with clogging or fullness in the ear the same [2]: 19% | patients with ear noise better [2]: 72% | patients with ear noise unchanged [2]: 19% | patients with hearing better [2]: 83% | patients with hearing the same [2]: 8% | patients with hearing worse than with prior bisphosphonate treatment [2]: 8% | patients with improvement, regular lifestyle free of disabling dizziness [2]: 16% | patients with disappearance of dizziness [3]: 38% | patients with dizziness worse [3]: 3% | patients with no change in dizziness [3]: 8% | patients with reduced dizziness, no problem in daily living [3]: 38% | relief of dizziness [3]: greater than 90% | patients with hearing improved [4]: 70% | patients with hearing unchanged [4]: 24% | patients with hearing worse [4]: 6% | patients with hearing improved [5]: 51% | patients with hearing unchanged [5]: 47% | patients with hearing worse [5]: 2% | clogging or fullness in the ear worse [6]: no patients | dizziness the same or worse [6]: no instances | patients whose clogging or fullness in the ear disappeared [6]: 26% | patients whose dizziness disappeared [6]: 57% | patients with clogging or fullness in the ear better [6]: 19% | patients with clogging or fullness in the ear the same [6]: 7% | patients with ear noise better [6]: 60% | patients with ear noise gone [6]: 10% | patients with ear noise the same [6]: 19% | patients with ear noise worse [6]: 2% | patients with hearing better [6]: 69% | patients with hearing the same [6]: 14% | patients with hearing worse than with prior bisphosphonate treatment [6]: 12% | patients with improvement, regular lifestyle free of disabling dizziness [6]: 17% | improvement in tinnitus or ear noise [7]: 76% | patients with disappearance of tinnitus [7]: 5% | patients with reduction of tinnitus to a point where it was no longer a problem [7]: 71% | patients with tinnitus the same [7]: 21% | patients with tinnitus worse [7]: 2% | improvement in tinnitus or ear noise [8]: 68% | patients with disappearance of tinnitus [8]: 7% | patients with reduction of tinnitus to a point where it was no longer a problem [8]: 62% | patients with tinnitus the same [8]: 24% | patients with tinnitus worse [8]: 7%

O=P(O)(O)C(O)(Cn1ccnc1)P(=O)(O)O [zolendronic acid]
patients with hearing unchanged [9]: 80% | patients with hearing worse [9]: 20% | relief of dizziness [10]: ~100%
